# In patent US9110059B2, “Bio-pin” (Industry-Academic Cooperation Foundation, Yonsei University, priority 2011, dated 2015):
# Tests used:
# Assay type in all cases: cell-based
# [1] = system: rat mesenchymal stem cells attached to H9c2 cells; assay: Adhesion of bio-pin-treated mesenchymal stem cells to H9c2 cells (intercellular bond number); conditions: stem cells treated with 1 μM bio-pin for an hour, kept 10 minutes on H9c2 cells; fluorescence microscope and spectrometer
# Experimental: (§1) Rat cardiac myoblast H9c2 cells were incubated until a 4-well chamber (Lab-Tek chamber slide) was 100% filled with the H9c2 cells. Thereafter, the H9c2 cells were treated with a cell-labeled dye (Vybrant™ DiI) at a final concentration of 5 μl/mL, reacted at 37° C. for 30 minutes in a CO2 incubator, and then washed three times with PBS.
# (§2) Also, rat mesenchymal stem cells were cultured in a MesenPRO (Gibco, USA) medium in a petri dish. Thereafter, trypsin-EDTA and a trypsin-neutralizing solution were added at a ratio of 1:1, and then reacted for 5 minutes to detach the stem cells. The stem cells were treated with a cell-modifying dye (Vybrant™ DiO, Invitrogen, USA) at a final concentration of 5 μl/mL, reacted at 37° C. for 30 minutes in a CO2 incubator, washed three times with PBS, and then centrifuged for 3 minutes at a rotary speed of 1,200 rpm to be prepared.
# (§3) The prepared stem cells were treated with the peptide-based complex previously prepared in Example 1 or 2 at a final concentration of 1 μM, reacted at 37° C. for an hour in a CO2 incubator while stirring right and left, washed three times with PBS, and then centrifuged to obtain a cell pellet. […] To quantify the MSCs attached to the H9c2 cells, a cell medium was removed off, and 200 μl of 0.1% Triton X-100 was added, and removed off after 5 minutes.
# [2] = system: rat mesenchymal stem cells (MSCs) attached to H9c2 cells; assay: Adhesion of BPin-RGD-treated mesenchymal stem cells to H9c2 cells (intercellular bond number); conditions: stem cells treated with 100 nM bio-pin for an hour, kept 10 minutes on H9c2 cells; fluorescence 484 nm/501 nm
# Experimental: as §1, with “CellMask™ plasma membrane stain (Invitrogen, USA)” for “cell-labeled dye (Vybrant™ DiI)”
# as §2, with “stem cells (MSCs) were cultured” for “stem cells were cultured”, “concentration of 2 μl/mL, reacted” for “concentration of 5 μl/mL, reacted”, “of 1,200 rpm.” for “of 1,200 rpm to be prepared.”
# as §3, with “bio-pin” for “peptide-based complex previously”, “3” for “1 or 2”, “100 nM,” for “1 μM,”, “pellet. Subsequently, the cell pellet was re-suspended in 400 μl of a DMEM medium supplemented with 10% FBS.” for “pellet.”, “cells,” for “cells, a cell medium was removed off, and”
# [3] = system: intercellular cell adhesion molecule-1 (ICAM-1); assay: Immunoblotting of HUVEC lysate with anti-ICAM-1 antibody; conditions: TNF-alpha 10 ng/mL for 24 hours
# Experimental: (§4) HUVECs (5×10^4 cells/well) were cultured in an EGM medium (Lonza, USA) on a 24-well plate, starved for 4 hours in a 0.5% EBM medium, and treated with TNF-alpha (10 ng/mL) for 24 hours. Thereafter, the HUVECs were treated with a CellMask™ plasma membrane stain (Invitrogen, USA) at a final concentration of 5 μg/mL, reacted at 37° C. for 30 minutes in a CO2 incubator, and then washed three times with PBS.
# (§5) Also, to determine whether the HUVECs were suitably stimulated with TNF-alpha, immunoblotting was performed using anti-ICAM-1 and anti-VCAM-1 antibodies.
# [4] = system: vascular cell adhesion molecule-1 (VCAM-1); assay: Immunoblotting of HUVEC lysate with anti-VCAM-1 antibody; conditions: TNF-alpha 10 ng/mL for 24 hours
# Experimental: as §4, §5
substance,measurement,setting,value
BPin-55: bio-pin in which TAT cell-penetrating peptides are fused with N- and C-terminus of 31-amino-acid OPRD first transmembrane domain peptide (YGRKKRRQRRRGSLAIAITALYSAVCAVGLLGNVLVMFGIVRYTYGRKKRRQRRR; BPin-55 TAT-OPRD-TAT),number of intercellular bonds (FIGS. 5 and 6),[1],remarkably increased
BPin-RGD: bio-pin with adhesive peptide (GRGDSP) at N-terminus and TAT cell-penetrating peptide at C-terminus of the 31-amino-acid OPRD peptide (GRGDSPGSLAIAITALYSAVCAVGLLGNVLVMFGIVRYTYGRKKRRQRRR; BPin-RGD RGD-OPRD-TAT),number of intercellular bonds (FIG. 7),[2],remarkably increased
TNF-alpha,ICAM-1 expression in HUVECs (FIG. 9),[3],increasingly expressed
same,VCAM-1 expression in HUVECs (FIG. 9),[4],increasingly expressed
